Like-named read-outs stand apart in the source and are kept apart here.
Tests used:
[1] = cited from earlier work
[2] = Average score of NAC and NAL depletion and phototoxicity or photoallergy determination, UV detection; settings: for Average score (%): under light irradiation, single compound
Description: (§1) After being spun down in a centrifuge, the reaction solutions are irradiated with light at 2,000 μW/cm^2 using an SXL-2500V2 ultraviolet irradiation apparatus (manufactured by SERIC., Ltd.) for 1 hour, followed by incubation at 25° C. in a light-shielded state for 23 hours. As controls without light irradiation, reaction solutions are prepared, followed by incubation at 25° C. in a light-shielded state for 24 hours.
(§2) As the conditions without light irradiation, the 1 mmol/L test substance solutions were each reacted with the nucleophilic reagents, namely, NAC and NAL, at 25° C. for 24 hours. As the conditions with light irradiation, the 1 mmol/L test substance solutions were each irradiated at room temperature with light at 2,000 μW/cm^2 for 1 hour and were then reacted at 25° C. for 23 hours.
(§3) All reactions were performed on the 96-well plate. For each sample, n=3. As comparative controls, reaction solutions to which only the solvents, which are used to dissolve the test substances, were added were also prepared. The reaction solutions were prepared such that the concentrations of NAC and NAL were 5 μmon and the concentration of the test substance was 0.25 mmol/L. After 24 hours, HPLC measurements were made by two detection methods, namely, light absorption detection on a photodiode array (PDA) detector and fluorescence detection on a fluorescence detector. For PDA detection, a trifluoroacetic acid (TFA) aqueous solution was added to the reaction solutions to a final TFA concentration of 0.5% (v/v) before use in the HPLC measurements. For fluorescence detection, each sample was diluted tenfold with a 0.5% (v/v) trifluoroacetic acid (TFA) aqueous solution before use in the HPLC measurements.
The depletions of the nucleophilic reagents (NAC and NAL) were determined by UV detection at 281 nm or fluorescence detection at an excitation wavelength of 284 nm and a fluorescence wavelength of 333 nm under the HPLC measurement conditions given in “(5) HPLC Measurement” above. […]

[3] = in vivo; cited from earlier work
[4] = Average score of NAC and NAL depletion and phototoxicity or photoallergy determination, fluorescence detection; settings: single compound
Description: as §1, §2, §3
The depletions of the nucleophilic reagents (NAC and NAL) were determined by UV detection at 281 nm or fluorescence detection at an excitation wavelength of 284 nm and a fluorescence wavelength of 333 nm under the HPLC measurement conditions given in “(5) HPLC Measurement” above.
As the conditions without light irradiation, the liquid mixtures were each reacted with the nucleophilic reagents, namely, NAC and NAL, at 25° C. for 24 hours. As the conditions with light irradiation, the liquid mixtures were each irradiated at room temperature with light at 2,000 μW/cm^2 for 1 hour and were then reacted at 25° C. for 23 hours.
All reactions were performed on the 96-well plate. For each sample, n=3. Reaction solutions to which only the solvent used for calculation of the depletions of NAC and NAL was added were also prepared. The reaction solutions were prepared such that the concentrations of NAC and NAL were 5 μmon and the concentration of the test substance was 0.5 mmol/L. After 24 hours, HPLC measurements were made by two detection methods, namely, light absorption detection on a photodiode array (PDA) detector and fluorescence detection on a fluorescence detector. For PDA detection, a trifluoroacetic acid (TFA) aqueous solution was added to the reaction solutions to a final TFA concentration of 0.5% (v/v) before use in the HPLC measurements.

[5] = NAL depletion under and without ultraviolet irradiation, HPLC with UV detection (281 nm); settings: test substance solution 1 mmol/L
Description: (§4) A 1 mmol/L solution of a test substance in water, acetonitrile, acetone, or 5% by mass dimethyl sulfoxide (DMSO)/acetonitrile solution is prepared and used as a test substance solution. A solvent in which the test substance is soluble at a concentration of 1 mmol/L is used. If the test substance is soluble in a plurality of solvents, the solvent is selected in the following order of priority: water, acetonitrile, acetone, and 5% by mass DMSO/acetonitrile.
(§5) Test substance solutions are prepared on a 96-well plate (U96 PP-0.5 ML NATURAL, Thermo (NUNC)), mainly using a 12-channel pipette, and the reagents are added in the following amounts:
(§6) Nucleophilic reagents (NAC and NAL): 150 μL
Test substance solution: 50 μL […]
(§7) For measurements using a fluorescence detector, 180 μL of the reaction stop solution (0.5% (v/v) TFA) is dispensed into each well of another plate in advance, and 20 μL of each sample is added so that the sample is diluted 10-fold.
(§8) The depletion of NAC or NAL is calculated from the average (n=3) peak area of unreacted NAC or NAL after the reaction and the average (n=3) peak area of NAC or NAL in a standard solution (no test substance added) by the following equations: […]
The average peak area of unreacted NAL after the reaction is the average area calculated from three measurements on unreacted NAL after the reaction. […]

[6] = NAL depletion under and without ultraviolet irradiation, HPLC with fluorescence detection (284 nm excitation, 333 nm fluorescence); settings: single compound
Description: as §4, §5, §6
Test substance solution: 50 μL
(§9) The plate is firmly sealed with a plate seal (resistant embossed seal, Shimadzu GLC Ltd.) and is shaken on a plate shaker (Titramax 100, Heidolph Instruments). After being spun down in a centrifuge, the reaction solutions are irradiated with light at 2,000 μW/cm^2 using an SXL-2500V2 ultraviolet irradiation apparatus (manufactured by SERIC., Ltd.) for 1 hour, followed by incubation at 25° C. in a light-shielded state for 23 hours. As controls without light irradiation, reaction solutions are prepared, followed by incubation at 25° C. in a light-shielded state for 24 hours.
as §7
(§10) The depletion of NAC or NAL is calculated from the average (n=3) peak area of unreacted NAC or NAL after the reaction and the average (n=3) peak area of NAC or NAL in a standard solution (no test substance added) by the following equations:
NAL depletion (% depletion)=[1−(average peak area of unreacted NAL after reaction/average peak area of NAL) in standard solution (no test substance added)]×100
The average peak area of unreacted NAL after the reaction is the average area calculated from three measurements on unreacted NAL after the reaction. The average peak area of NAL in a standard solution (no test substance added) is the average area calculated from three measurements on NAL in a reaction solution prepared by adding the solvent used for dissolution of the test substance instead of the test substance solution.
as §2, §3

[7] = NAC depletion under and without ultraviolet irradiation, HPLC with UV detection (281 nm)
Description: as §4, §5, §6
Test substance solution: 50 μL
The plate is firmly sealed with a plate seal (resistant embossed seal, Shimadzu GLC Ltd.) and is shaken on a plate shaker (Titramax 100, Heidolph Instruments). […]
as §7, §8
The average peak area of unreacted NAC after the reaction is the average area calculated from three measurements on unreacted NAC after the reaction. The average peak area of NAC in a standard solution (no test substance added) is the average area calculated from three measurements on NAC in a reaction solution prepared by adding the solvent used for dissolution of the test substance instead of the test substance solution. […]
All reactions were performed on the 96-well plate. […] For fluorescence detection, each sample was diluted tenfold with a 0.5% (v/v) trifluoroacetic acid (TFA) aqueous solution before use in the HPLC measurements.

[8] = NAC depletion under and without ultraviolet irradiation, HPLC with fluorescence detection (284 nm excitation, 333 nm fluorescence); settings: single compound
Description: as §4, §5, §6
Test substance solution: 50 μL
as §9, §7, §10
NAC depletion (% depletion)=[1−(average peak area of unreacted NAC after reaction/average peak area of NAC) in standard solution (no test substance added)]×100
The average peak area of unreacted NAC after the reaction is the average area calculated from three measurements on unreacted NAC after the reaction. The average peak area of NAC in a standard solution (no test substance added) is the average area calculated from three measurements on NAC in a reaction solution prepared by adding the solvent used for dissolution of the test substance instead of the test substance solution.
as §2, §3

SMILES | In vivo photoallergy ([1]; in vivo) | Average score (%) [2] | In vivo phototoxicity [3] | In vivo photoallergy ([1]; reported in References 1 and 2) | Average score (%) under light irradiation ([2]; average of NAC and NAL depletion) | Difference in depletion (under light irradiation - without light irradiation) Average score (%) [4] | Average score (%) ([4]; without light irradiation) | NAL Depletion (%) without light irradiation ([5]; 25° C. 24 hours light-shielded) | NAL Depletion (%) under light irradiation ([5]; 2,000 μW/cm^2 for 1 hour then 25° C. 23 hours) | Difference in depletion (under light irradiation - without light irradiation) NAL (%) [6] | NAL Depletion (%) ([6]; without light irradiation) | Difference in depletion (under light irradiation - without light irradiation) NAC (%) [7] | NAC Depletion (%) without light irradiation ([7]; 25° C. 24 hours light-shielded, test substance solution 1 mmol/L) | NAC Depletion (%) under light irradiation ([7]; 2,000 μW/cm^2 for 1 hour then 25° C. 23 hours, test substance solution 1 mmol/L) | Difference in depletion (under light irradiation - without light irradiation) NAC (%) [8] | NAC Depletion (%) ([8]; without light irradiation) | Average score (%) ([4]; under light irradiation)
C[S+](C)[O-] [No. 58, Dimethyl sulfoxide] | Negative | 0.4% | Negative | – | – | – | – | – | – | – | – | – | – | – | – | – | –
[Na+].[O-][n+]1ccccc1[S-] [compound 26] | – | – | – | Positive | 61.0% | 52.4% | 4.2% | −34.1% | 21.9% | 13.3% | 0.0% | 89.3% | 10.7% | 100.0% | 91.6% | 8.4% | –
CC(O)CO (racemic) [No. 54, Propylene glycol] | Negative | 0.1% | Negative | – | – | – | – | – | – | – | – | – | – | – | – | – | 0.3%

Source: patent US20220364989A1, “METHOD FOR MEASURING PHOTOTOXICITY OR PHOTOALLERGY AND REAGENT FOR USE THEREIN” (FUJIFILM Corporation, priority 2018, published 2022)
